In patent US20190388360A1, “PHARMACEUTICAL PATCH COMPRISING LIDOCAINE AND DICLOFENAC FOR TREATING NEUROPATHIC PAIN” (TEIKOKU SEIYAKU CO., LTD., priority 2017, published 2019):

Legend:
[1] = system: CFA-hindpaw inflammation; test: CFA-hindpaw inflammation, paw pressure test (CFA-PPT), intraperitoneal injection; type: in vivo, rat; conditions: ip; Lidocaine dose range 10 mg/kg to 46.4 mg/kg, Diclofenac dose range 21.5 mg/kg to 100 mg/kg
Procedure: An interaction study was performed as a single dose study in the CFA-hindpaw inflammation, paw pressure test.
In comparative example 1 and inventive examples 1 to 4 described below, a compound or combination of compounds was administered by intraperitoneal injection (FIGS. 1 to 9).
(§1) The pain was measured by pressing a pointer on the inflamed paw. The pointer exerts a force, increasing at a constant rate, monitored by a linear scale. Pain is deemed to be perceived one the rat starts to withdraw the paw. This value (withdrawal threshold in gram) is the pressure at which the animal feels pain (cut-off 450 g). Efficacy of the test compounds is expressed as a percent change of withdrawal threshold after compound administration to the pre-value (withdrawal threshold before compound administration).

[2] = system: CFA-induced paw edema / mechanical-hyperalgesia; test: CFA-hindpaw inflammation, paw pressure test (CFA-PPT), topical application to the paw as ointment or solution; type: in vivo, male albino rats; conditions: Lidocaine 30 mg/ml to 60 mg/ml, Diclofenac 40 mg/ml to 80 mg/ml
Procedure: In comparative example 2 and inventive examples 5 to 8 as described below, a compound or combination of compounds was administered topically to the paw by means of an ointment or solution (FIGS. 10 to 18).
The efficacy was tested when a compound or a compositions of compounds was administered topically as an ointment or a solution. The study was performed on male albino rats (150-180 g body weight) to which an edema of paw was induced by injection of Complete Freunds Adjuvant (CFA). CFA is a composition of inactivated and dried Myobacteria tuberculoses, emulsified in mineral oil which is used as an immunopotentiator causing a painful reaction that lasts 7-8 days after subcutaneous injection.
The studies of comparative example 2 and inventive examples 5 to 8 were performed according to the following procedure: 50 μL of CFA were injected sub plantar into the right hind paw, inducing mechanical-hyperalgesia after 24 hours. […]
as §1, with “Pain is deemed to be perceived one the rat starts to withdraw the paw. This value (withdrawal threshold in gram) is the pressure at which the animal feels pain (cut-off 450 g).” left out

SMILES	efficacy when administered alone [1]	efficacy when topically administered alone [2]
O=C(O)Cc1ccccc1Nc1c(Cl)cccc1Cl [Diclofenac, 2-(2,6-dichloranilino) phenylacetic acid]	dose dependent efficacy	dose dependent efficacy
CCN(CC)CC(=O)Nc1c(C)cccc1C [Lidocaine, 2-(diethylamino)-N-(2,6-dimethylphenyl)acetamide]	dose dependent efficacy	dose dependent efficacy
